Experiment [1] deals with ISC-enriched organoids. Put plainly: Primary screen, 384-well 2.5-D organoid differentiation (ENR+CD, 6 days, Target Selective Inhibitor Library, vs whole-plate median): ATP (CellTiter-Glo 3D, CTG). Particulars: primary screen; for Dose.FC.CTG: ENR+CD 6 days, FC vs plate median; for Z.CTG: standard z score of FC. Background: ATP-based viability assays read luminescence as a measure of living cells.

Experiment [2] has as its system ISC-enriched organoids. The experiment is described as follows: Primary screen, 384-well 2.5-D organoid differentiation (ENR+CD, 6 days): carbachol-induced lysozyme secretion (LYZ.S). It is filed as cell-based, murine. Particulars: primary screen, ENR+CD 6 days, FC vs plate median. The text has this: (§1) High-throughput screening.
Experiment [3] concerns ISC-enriched organoids. Put plainly: Primary screen, 384-well 2.5-D organoid differentiation (ENR+CD, 6 days): basal lysozyme secretion (LYZ.NS). It counts as cell-based, murine. Particulars: primary screen; for Dose.FC.LYZ.NS: ENR+CD 6 days, FC vs plate median; for Z.LYZ.NS: standard z score of FC.
Text: as §1

As to `Cc1cc2c(C(C)C)c(O)c(O)c(C=O)c2c(O)c1-c1c(C)cc2c(C(C)C)c(O)c(O)c(C=O)c2c1O` [AT101], the Dose.FC.CTG in experiment [1] (dose 0.08 uM) is on record as −0.198 log 2 fold change; in experiment [1] (dose 0.40 uM), 0.019 log 2 fold change; in experiment [1] (dose 2.00 uM), −0.216 log 2 fold change; in experiment [1] (dose 10.00 uM), −0.056 log 2 fold change. The Z.CTG was −0.472 in experiment [1] (dose 0.08 uM), 0.044 in experiment [1] (dose 0.40 uM), −0.515 in experiment [1] (dose 2.00 uM) and −0.133 in experiment [1] (dose 10.00 uM). In addition, the Dose.FC.LYZ.S in experiment [2] (dose 0.08 uM) was 0.004 log 2 fold change; in experiment [2] (dose 0.40 uM), −0.013 log 2 fold change; in experiment [2] (dose 2.00 uM), −0.085 log 2 fold change; in experiment [2] (dose 10.00 uM), −0.061 log 2 fold change. Moreover, the Dose.FC.LYZ.NS in experiment [3] (dose 0.08 uM) was −0.049 log 2 fold change; in experiment [3] (dose 0.40 uM), −0.068 log 2 fold change; in experiment [3] (dose 2.00 uM) it was −0.036 log 2 fold change; in experiment [3] (dose 10.00 uM) it was −0.052 log 2 fold change. Moreover, the Z.LYZ.NS was −0.426 in experiment [3] (dose 0.08 uM), −0.592 in experiment [3] (dose 0.40 uM), −0.311 in experiment [3] (dose 2.00 uM) and −0.452 in experiment [3] (dose 10.00 uM).

For the compound `CCNC(=O)c1noc(-c2cc(C(C)C)c(O)cc2O)c1-c1ccc(CN2CCOCC2)cc1` [AUY922 (NVP-AUY922)], the Dose.FC.CTG is given as −1.185 log 2 fold change in experiment [1] (dose 0.08 uM), −1.343 log 2 fold change in experiment [1] (dose 0.40 uM), −1.137 log 2 fold change in experiment [1] (dose 2.00 uM) and −1.270 log 2 fold change in experiment [1] (dose 10.00 uM). Moreover, the Z.CTG is reported as −2.830 in experiment [1] (dose 0.08 uM), −3.208 in experiment [1] (dose 0.40 uM), −2.715 in experiment [1] (dose 2.00 uM) and −3.032 in experiment [1] (dose 10.00 uM). For the same compound, the Dose.FC.LYZ.S was −0.209 log 2 fold change in experiment [2] (dose 0.08 uM), −0.184 log 2 fold change in experiment [2] (dose 0.40 uM), −0.216 log 2 fold change in experiment [2] (dose 2.00 uM) and −0.214 log 2 fold change in experiment [2] (dose 10.00 uM). In addition, the Dose.FC.LYZ.NS in experiment [3] (dose 0.08 uM) is −0.144 log 2 fold change; in experiment [3] (dose 0.40 uM) it was −0.154 log 2 fold change; in experiment [3] (dose 2.00 uM), −0.138 log 2 fold change; in experiment [3] (dose 10.00 uM), −0.153 log 2 fold change. For the same compound, the Z.LYZ.NS in experiment [3] (dose 0.08 uM) was −1.251; in experiment [3] (dose 0.40 uM), −1.343; in experiment [3] (dose 2.00 uM), −1.200; in experiment [3] (dose 10.00 uM) it was −1.330.

`C=CC(=O)Nc1cccc(Nc2nc(Nc3ccc(OCCOC)cc3)ncc2F)c1` [AVL-292]: the Dose.FC.CTG in experiment [1] (dose 0.08 uM) is reported as 0.217 log 2 fold change; in experiment [1] (dose 0.40 uM), 0.057 log 2 fold change; in experiment [1] (dose 2.00 uM), −0.058 log 2 fold change; in experiment [1] (dose 10.00 uM), −0.778 log 2 fold change. The Z.CTG in experiment [1] (dose 0.08 uM) was 0.518; in experiment [1] (dose 0.40 uM), 0.135; in experiment [1] (dose 2.00 uM), −0.138; in experiment [1] (dose 10.00 uM), −1.859. Also, the Dose.FC.LYZ.S is given as 0.235 log 2 fold change in experiment [2] (dose 0.08 uM), 0.106 log 2 fold change in experiment [2] (dose 0.40 uM), −0.206 log 2 fold change in experiment [2] (dose 2.00 uM) and −0.376 log 2 fold change in experiment [2] (dose 10.00 uM). Besides, the Dose.FC.LYZ.NS in experiment [3] (dose 0.08 uM) is 0.095 log 2 fold change; in experiment [3] (dose 0.40 uM), 0.052 log 2 fold change; in experiment [3] (dose 2.00 uM), −0.112 log 2 fold change; in experiment [3] (dose 10.00 uM), −0.213 log 2 fold change. The Z.LYZ.NS in experiment [3] (dose 0.08 uM) is 0.831; in experiment [3] (dose 0.40 uM), 0.451; in experiment [3] (dose 2.00 uM), −0.979; in experiment [3] (dose 10.00 uM) it was −1.858.

On to `C[C@@H]1COCCN1c1cc(C2(S(C)(=O)=O)CC2)nc(-c2cccc3[nH]ccc23)n1` [AZ20], for which the Dose.FC.CTG in experiment [1] (dose 0.08 uM) is −0.210 log 2 fold change; in experiment [1] (dose 0.40 uM), −0.218 log 2 fold change; in experiment [1] (dose 2.00 uM), −1.054 log 2 fold change; in experiment [1] (dose 10.00 uM) it was −0.573 log 2 fold change. Besides, the Z.CTG in experiment [1] (dose 0.08 uM) is −0.500; in experiment [1] (dose 0.40 uM) it was −0.521; in experiment [1] (dose 2.00 uM) it was −2.519; in experiment [1] (dose 10.00 uM), −1.368. The Dose.FC.LYZ.S is −0.038 log 2 fold change in experiment [2] (dose 0.08 uM), −0.236 log 2 fold change in experiment [2] (dose 0.40 uM), −0.373 log 2 fold change in experiment [2] (dose 2.00 uM) and −0.329 log 2 fold change in experiment [2] (dose 10.00 uM). The Dose.FC.LYZ.NS in experiment [3] (dose 0.08 uM) was 0.042 log 2 fold change; in experiment [3] (dose 0.40 uM), −0.140 log 2 fold change; in experiment [3] (dose 2.00 uM), −0.215 log 2 fold change; in experiment [3] (dose 10.00 uM), −0.261 log 2 fold change. Further, the Z.LYZ.NS is listed as 0.365 in experiment [3] (dose 0.08 uM), −1.222 in experiment [3] (dose 0.40 uM), −1.868 in experiment [3] (dose 2.00 uM) and −2.271 in experiment [3] (dose 10.00 uM).

With `COc1cc(N2CCN(C)CC2)ccc1Nc1nccc(-c2cn(C)c3cnccc23)n1` [AZ191], the Dose.FC.CTG is on record as 0.292 log 2 fold change in experiment [1] (dose 0.08 uM), 0.337 log 2 fold change in experiment [1] (dose 0.40 uM), 0.150 log 2 fold change in experiment [1] (dose 2.00 uM) and −0.533 log 2 fold change in experiment [1] (dose 10.00 uM). Also, the Z.CTG in experiment [1] (dose 0.08 uM) is given as 0.697; in experiment [1] (dose 0.40 uM), 0.804; in experiment [1] (dose 2.00 uM), 0.358; in experiment [1] (dose 10.00 uM), −1.272. The Dose.FC.LYZ.S was 0.143 log 2 fold change in experiment [2] (dose 0.08 uM), 0.199 log 2 fold change in experiment [2] (dose 0.40 uM), 0.097 log 2 fold change in experiment [2] (dose 2.00 uM) and −0.200 log 2 fold change in experiment [2] (dose 10.00 uM). Moreover, the Dose.FC.LYZ.NS in experiment [3] (dose 0.08 uM) is 0.128 log 2 fold change; in experiment [3] (dose 0.40 uM), 0.082 log 2 fold change; in experiment [3] (dose 2.00 uM), 0.058 log 2 fold change; in experiment [3] (dose 10.00 uM), −0.148 log 2 fold change. In addition, the Z.LYZ.NS was 1.111 in experiment [3] (dose 0.08 uM), 0.717 in experiment [3] (dose 0.40 uM), 0.507 in experiment [3] (dose 2.00 uM) and −1.289 in experiment [3] (dose 10.00 uM).

As for `COc1cc(OC2CCN(C)CC2)ccc1Nc1ncc2c(n1)n(C1CCCC1)c(=O)n2C` [AZ 3146], the Dose.FC.CTG is listed as −0.130 log 2 fold change in experiment [1] (dose 0.08 uM), −0.262 log 2 fold change in experiment [1] (dose 0.40 uM), −0.369 log 2 fold change in experiment [1] (dose 2.00 uM) and −1.168 log 2 fold change in experiment [1] (dose 10.00 uM). The Z.CTG in experiment [1] (dose 0.08 uM) is on record as −0.310; in experiment [1] (dose 0.40 uM), −0.626; in experiment [1] (dose 2.00 uM) it was −0.881; in experiment [1] (dose 10.00 uM) it was −2.789. The Dose.FC.LYZ.S in experiment [2] (dose 0.08 uM) is 0.049 log 2 fold change; in experiment [2] (dose 0.40 uM), −0.067 log 2 fold change; in experiment [2] (dose 2.00 uM), −0.130 log 2 fold change; in experiment [2] (dose 10.00 uM) it was −0.422 log 2 fold change. The Dose.FC.LYZ.NS in experiment [3] (dose 0.08 uM) was 0.073 log 2 fold change; in experiment [3] (dose 0.40 uM), −0.038 log 2 fold change; in experiment [3] (dose 2.00 uM) it was −0.079 log 2 fold change; in experiment [3] (dose 10.00 uM), −0.281 log 2 fold change. Besides, the Z.LYZ.NS in experiment [3] (dose 0.08 uM) is given as 0.639; in experiment [3] (dose 0.40 uM), −0.327; in experiment [3] (dose 2.00 uM), −0.687; in experiment [3] (dose 10.00 uM), −2.447.

As to `CC(=O)Nc1cccc2c1c(Sc1ccc(Cl)cc1)c(C)n2CC(=O)O` [AZD1981], the Dose.FC.CTG stood at 0.400 log 2 fold change in experiment [1] (dose 0.08 uM), 0.285 log 2 fold change in experiment [1] (dose 0.40 uM), 0.099 log 2 fold change in experiment [1] (dose 2.00 uM) and 0.238 log 2 fold change in experiment [1] (dose 10.00 uM). The Z.CTG in experiment [1] (dose 0.08 uM) was determined as 0.955; in experiment [1] (dose 0.40 uM) it was 0.681; in experiment [1] (dose 2.00 uM) it was 0.236; in experiment [1] (dose 10.00 uM) it was 0.570. In addition, the Dose.FC.LYZ.S was 0.023 log 2 fold change in experiment [2] (dose 0.08 uM), 0.191 log 2 fold change in experiment [2] (dose 0.40 uM), 0.014 log 2 fold change in experiment [2] (dose 2.00 uM) and 0.070 log 2 fold change in experiment [2] (dose 10.00 uM). Moreover, the Dose.FC.LYZ.NS in experiment [3] (dose 0.08 uM) is 0.009 log 2 fold change; in experiment [3] (dose 0.40 uM) it was 0.001 log 2 fold change; in experiment [3] (dose 2.00 uM), 0.001 log 2 fold change; in experiment [3] (dose 10.00 uM), 0.024 log 2 fold change. The Z.LYZ.NS stood at 0.081 in experiment [3] (dose 0.08 uM), 0.008 in experiment [3] (dose 0.40 uM), 0.011 in experiment [3] (dose 2.00 uM) and 0.205 in experiment [3] (dose 10.00 uM).

On to `COC1CCN(C(=O)c2cc(Cc3n[nH]c(=O)c4ccccc34)ccc2F)CC1` [AZD2461], for which the Dose.FC.CTG in experiment [1] (dose 0.08 uM) is reported as 0.073 log 2 fold change; in experiment [1] (dose 0.40 uM) it was −0.040 log 2 fold change; in experiment [1] (dose 2.00 uM) it was −0.232 log 2 fold change; in experiment [1] (dose 10.00 uM), −0.336 log 2 fold change. The Z.CTG is listed as 0.174 in experiment [1] (dose 0.08 uM), −0.095 in experiment [1] (dose 0.40 uM), −0.555 in experiment [1] (dose 2.00 uM) and −0.803 in experiment [1] (dose 10.00 uM). Further, the Dose.FC.LYZ.S in experiment [2] (dose 0.08 uM) is 0.097 log 2 fold change; in experiment [2] (dose 0.40 uM), 0.015 log 2 fold change; in experiment [2] (dose 2.00 uM) it was −0.100 log 2 fold change; in experiment [2] (dose 10.00 uM), −0.224 log 2 fold change. The Dose.FC.LYZ.NS in experiment [3] (dose 0.08 uM) is given as 0.038 log 2 fold change; in experiment [3] (dose 0.40 uM), −0.038 log 2 fold change; in experiment [3] (dose 2.00 uM), −0.074 log 2 fold change; in experiment [3] (dose 10.00 uM) it was −0.172 log 2 fold change. In addition, the Z.LYZ.NS in experiment [3] (dose 0.08 uM) is reported as 0.334; in experiment [3] (dose 0.40 uM), −0.327; in experiment [3] (dose 2.00 uM), −0.641; in experiment [3] (dose 10.00 uM), −1.497.
